Data: PubChem BioAssay AID1919006 (Molecular Pharmacology Branch, DTP, NCI, 2023)
Where “and” joins values, the source holds several entries; their conditions need not be identical. Equal values may be shown once.

Test system: 885512-296-R-J2-PDC complex spheroid growth, % test/control
Assay: Anticancer human tumor 885512-296-R-J2-PDC patient-derived breast carcinoma cell line growth inhibition [AhR]
Settings: for viability, T/C: stronger effect = lower value
Method in brief: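 Complex tumor spheroids co-cultured with HUVEC and human MSC stroma; AhR antagonists tested in combination with standard-of-care and investigational agents. Top concentration at or near clinical Cmax (else 10 microM), half-log dilutions; growth expressed as percent test/control.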

[1] = curve of first compound, second compound 0.1 µM
[2] = curve of first compound, second compound 0.316 µM
[3] = curve of first compound, second compound 1 µM
[4] = curve of first compound, second compound 3.16 µM
[5] = curve of first compound, second compound 10 µM
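Further: spheroids exposed to compounds for seven days.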

## O=C(C=Cn1cnc(-c2cc(C(F)(F)F)cc(C(F)(F)F)c2)n1)NNc1cnccn1 + CC(CO)NC(=O)c1cc(-c2ccc(Cl)cc2)nn(-c2cnn(C)c2)c1=O
[1]
  IC50: 62.9 nM
[2]
  IC50: 67.2 nM
[3]
  IC50: 71.8 nM
[4]
  IC50: 65.6 nM
[5]
  IC50: 66.3 nM
Second compound 0.1 µM, first compound 0.00949 µM
  viability, T/C: 91.7%
Second compound 0.1 µM, first compound 0.03 µM
  viability, T/C: 99.7%
Second compound 0.1 µM, first compound 0.0949 µM
  viability, T/C: 24.6%
Second compound 0.1 µM, first compound 0.3 µM
  viability, T/C: 3.85%
Second compound 0.1 µM, first compound 0.949 µM
  viability, T/C: 2.45%
Second compound 0.1 µM, first compound 3 µM
  viability, T/C: 0.96%
Second compound 0.316 µM, first compound 0.00949 µM
  viability, T/C: 101%
Second compound 0.316 µM, first compound 0.03 µM
  viability, T/C: 98.8%
Second compound 0.316 µM, first compound 0.0949 µM
  viability, T/C: 29.1%
Second compound 0.316 µM, first compound 0.3 µM
  viability, T/C: 3.67%
Second compound 0.316 µM, first compound 0.949 µM
  viability, T/C: 1.87%
Second compound 0.316 µM, first compound 3 µM
  viability, T/C: 0.84%
Second compound 1 µM, first compound 0.00949 µM
  viability, T/C: 94.2%
Second compound 1 µM, first compound 0.03 µM
  viability, T/C: 109%
Second compound 1 µM, first compound 0.0949 µM
  viability, T/C: 33.4%
Second compound 1 µM, first compound 0.3 µM
  viability, T/C: 5.46%
Second compound 1 µM, first compound 0.949 µM
  viability, T/C: 1.59%
Second compound 1 µM, first compound 3 µM
  viability, T/C: 0.91%
Second compound 3.16 µM, first compound 0.00949 µM
  viability, T/C: 92.2%
Second compound 3.16 µM, first compound 0.03 µM
  viability, T/C: 111%
Second compound 3.16 µM, first compound 0.0949 µM
  viability, T/C: 25.7%
Second compound 3.16 µM, first compound 0.3 µM
  viability, T/C: 6.14%
Second compound 3.16 µM, first compound 0.949 µM
  viability, T/C: 1.92%
Second compound 3.16 µM, first compound 3 µM
  viability, T/C: 0.85%
Second compound 10 µM, first compound 0.00949 µM
  viability, T/C: 114%
Second compound 10 µM, first compound 0.03 µM
  viability, T/C: 107%
Second compound 10 µM, first compound 0.0949 µM
  viability, T/C: 24.1%
Second compound 10 µM, first compound 0.3 µM
  viability, T/C: 4.61%
Second compound 10 µM, first compound 0.949 µM
  viability, T/C: 2%
Second compound 10 µM, first compound 3 µM
  viability, T/C: 0.87%

## O=C(C=Cc1cccc(S(=O)(=O)Nc2ccccc2)c1)NO
Compound 0.0316 µM
  viability, T/C: 90.3% and 90% and 85.2%
Compound 0.1 µM
  viability, T/C: 86.3% and 84.5% and 83.5%
Compound 0.316 µM
  viability, T/C: 59.8% and 62.8% and 69.6%
Compound 1 µM
  viability, T/C: 45.6% and 39% and 44.7%
Compound 3.16 µM
  viability, T/C: 26.5% and 27.6% and 33.8%
Compound 10 µM
  viability, T/C: 10.4% and 6.72% and 10.9%
Curve of compound
  IC50: 725 nM and 670 nM and 991 nM

## COc1ccc([C@@H](O)c2cc(-c3ncnc4cc(N5CCOCC5)ccc34)c(F)cc2Cl)nn1
Compound 0.0316 µM
  viability, T/C: 94.6% and 87.4% and 102%
Compound 0.1 µM
  viability, T/C: 106% and 92.4% and 99.4%
Compound 0.316 µM
  viability, T/C: 89.7% and 96.4% and 93.8%
Compound 1 µM
  viability, T/C: 92.1% and 84% and 75.6%
Compound 3.16 µM
  viability, T/C: 72.1% and 75.7% and 68.1%
Compound 10 µM
  viability, T/C: 46% and 46.8% and 45.7%
Curve of compound
  IC50: 8490 nM and 8770 nM and 8080 nM

## COc1cc(Nc2ncc3c(n2)-c2ccc(Cl)cc2C(c2c(F)cccc2OC)=NC3)ccc1C(=O)O + Cc1cncc(-c2nc(NCCc3c[nH]c4ccccc34)c3ncn(C(C)C)c3n2)c1
[1]
  IC50: 31.6 nM
[2]
  IC50: 48.3 nM
[3]
  IC50: < 31.6 nM
[4]
  IC50: < 31.6 nM
[5]
  IC50: < 31.6 nM
Second compound 0.1 µM, first compound 0.0316 µM
  viability, T/C: 49.5%
Second compound 0.1 µM, first compound 0.1 µM
  viability, T/C: 46.1%
Second compound 0.1 µM, first compound 0.316 µM
  viability, T/C: 47.6%
Second compound 0.1 µM, first compound 1 µM
  viability, T/C: 50.6%
Second compound 0.1 µM, first compound 3.16 µM
  viability, T/C: 30.2%
Second compound 0.1 µM, first compound 10 µM
  viability, T/C: 32%
Second compound 0.316 µM, first compound 0.0316 µM
  viability, T/C: 53.3%
Second compound 0.316 µM, first compound 0.1 µM
  viability, T/C: 43.6%
Second compound 0.316 µM, first compound 0.316 µM
  viability, T/C: 48%
Second compound 0.316 µM, first compound 1 µM
  viability, T/C: 42.4%
Second compound 0.316 µM, first compound 3.16 µM
  viability, T/C: 45.8%
Second compound 0.316 µM, first compound 10 µM
  viability, T/C: 34.2%
Second compound 1 µM, first compound 0.0316 µM
  viability, T/C: 44.5%
Second compound 1 µM, first compound 0.1 µM
  viability, T/C: 37.8%
Second compound 1 µM, first compound 0.316 µM
  viability, T/C: 46%
Second compound 1 µM, first compound 1 µM
  viability, T/C: 41.7%
Second compound 1 µM, first compound 3.16 µM
  viability, T/C: 39.7%
Second compound 1 µM, first compound 10 µM
  viability, T/C: 39.5%
Second compound 3.16 µM, first compound 0.0316 µM
  viability, T/C: 32.6%
Second compound 3.16 µM, first compound 0.1 µM
  viability, T/C: 35.6%
Second compound 3.16 µM, first compound 0.316 µM
  viability, T/C: 33.6%
Second compound 3.16 µM, first compound 1 µM
  viability, T/C: 34%
Second compound 3.16 µM, first compound 3.16 µM
  viability, T/C: 32.2%
Second compound 3.16 µM, first compound 10 µM
  viability, T/C: 31.2%
Second compound 10 µM, first compound 0.0316 µM
  viability, T/C: 16.2%
Second compound 10 µM, first compound 0.1 µM
  viability, T/C: 12.8%
Second compound 10 µM, first compound 0.316 µM
  viability, T/C: 13.3%
Second compound 10 µM, first compound 1 µM
  viability, T/C: 14.8%
Second compound 10 µM, first compound 3.16 µM
  viability, T/C: 17.2%
Second compound 10 µM, first compound 10 µM
  viability, T/C: 17.6%
